# US11505543B2, “4-oxo-3,4-dihydroquinazoline compounds as inhibitors of human immunodeficiency virus replication” (VIIV HEALTHCARE UK (NO.5) LIMITED, priority 2018, dated 2022)
# pEC50: −log10 of the molar value.
# Columns and labels:
# [1] = system: recombinant NL4-3 virus (nef section replaced with Renilla luciferase gene) in MT-2 cells; assay: HIV cell culture assay (antiviral activity, luciferase readout); assay type: cell-based; settings: Renilla, NL43, MT-2 cells infected for 4-5 days with recombinant NL4-3 Renilla luciferase virus, serial dilutions of compound
# How it was run: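 Test compound in serial dilution was present while MT-2 cells were infected for 4–5 days with recombinant NL4-3 virus made in 293T cells. Antiviral activity was quantified as Renilla luciferase activity, read with a live-cell substrate. EC50 came from the median-effect equation.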
# [2] = Compound cytotoxicity, XTT-based colorimetric assay; assay type: cell-based; settings: human, uninfected MT2 cells, day 4, XTT
# How it was run: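 Run under the antiviral-assay protocol but without virus. Viability was read on day 4 and CC50 values were derived from the readout.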
Compound,pEC50 [1],CC50 at 4 day [2] [nM]
"Cn1nc(NS(C)(=O)=O)c2c(Cl)ccc(-n3c([C@H](Cc4cc(F)cc(F)c4)NC(=O)Cn4nc(C(F)F)c5c4C(F)(F)[C@@H]4C[C@H]54)nc4cc(-c5cc(F)ccc5F)ccc4c3=O)c21 (atropisomer, axis not shown; (aR)) [Example 99, N-((S)-1-(3-(4-chloro-1-methyl-3-(methylsulfonamido)-1H-indazol-7-yl)-7-(2,5-difluorophenyl)-4-oxo-3,4-dihydroquinazolin-2-yl)-2-(3,5-difluorophenyl)ethyl)-2-((3bS,4aR)-3-(difluoromethyl)-5,5-difluoro-3b,4,4a,5-tetrahydro-1H-cyclopropa[3,4]cyclopenta[1,2-c]pyrazol-1-yl)acetamide]",9.17,> 1000
"Cn1nc(NS(C)(=O)=O)c2c(Cl)ccc(-n3c([C@H](Cc4cc(F)cc(F)c4)NC(=O)Cn4nc(C(F)F)c5c4C(F)(F)[C@@H]4C[C@H]54)nc4cc(-c5ccc(C(=O)O)cc5)ccc4c3=O)c21 (atropisomer, axis not shown; (aR)) [Example 100, 4-(3-(4-chloro-1-methyl-3-(methylsulfonamido)-1H-indazol-7-yl)-2-((S)-1-(2-((3bS,4aR)-3-(difluoromethyl)-5,5-difluoro-3b,4,4a,5-tetrahydro-1H-cyclopropa[3,4]cyclopenta[1,2-c]pyrazol-1-yl)acetamido)-2-(3,5-difluorophenyl)ethyl)-4-oxo-3,4-dihydroquinazolin-7-yl)benzoic acid]",8.19,> 1000
"Cn1nc(NS(C)(=O)=O)c2c(Cl)ccc(-n3c([C@H](Cc4cc(F)cc(F)c4)NC(=O)Cn4nc(C(F)F)c5c4C(F)(F)[C@@H]4C[C@H]54)nc4cc(-c5ccc(-c6ccccc6)cc5)ccc4c3=O)c21 (atropisomer, axis not shown; (aR)) [Example 101, N-((S)-1-(7-([1,1′-biphenyl]-4-yl)-3-(4-chloro-1-methyl-3-(methylsulfonamido)-1H-indazol-7-yl)-4-oxo-3,4-dihydroquinazolin-2-yl)-2-(3,5-difluorophenyl)ethyl)-2-((3bS,4aR)-3-(difluoromethyl)-5,5-difluoro-3b,4,4a,5-tetrahydro-1H-cyclopropa[3,4]cyclopenta[1,2-c]pyrazol-1-yl)acetamide]",7.21,> 1000
"Cn1nc(NS(C)(=O)=O)c2c(Cl)ccc(-n3c([C@H](Cc4cc(F)cc(F)c4)NC(=O)Cn4nc(C(F)F)c5c4C(F)(F)[C@@H]4C[C@H]54)nc4cc(-c5cc(F)cc(F)c5)ccc4c3=O)c21 (atropisomer, axis not shown; (aR)) [Example 103, N-((S)-1-(3-(4-chloro-1-methyl-3-(methylsulfonamido)-1H-indazol-7-yl)-7-(3,5-difluorophenyl)-4-oxo-3,4-dihydroquinazolin-2-yl)-2-(3,5-difluorophenyl)ethyl)-2-((3bS,4aR)-3-(difluoromethyl)-5,5-difluoro-3b,4,4a,5-tetrahydro-1H-cyclopropa[3,4]cyclopenta[1,2-c]pyrazol-1-yl)acetamide]",9.06,> 1000
"Cn1nc(NS(C)(=O)=O)c2c(Cl)ccc(-n3c([C@H](Cc4cc(F)cc(F)c4)NC(=O)Cn4nc(C(F)F)c5c4C(F)(F)[C@@H]4C[C@H]54)nc4cc(-c5c(Cl)cccc5Cl)ccc4c3=O)c21 (atropisomer, axis not shown; (aR)) [Example 104, N-((S)-1-(3-(4-chloro-1-methyl-3-(methylsulfonamido)-1H-indazol-7-yl)-7-(2,6-dichlorophenyl)-4-oxo-3,4-dihydroquinazolin-2-yl)-2-(3,5-difluorophenyl)ethyl)-2-((3bS,4aR)-3-(difluoromethyl)-5,5-difluoro-3b,4,4a,5-tetrahydro-1H-cyclopropa[3,4]cyclopenta[1,2-c]pyrazol-1-yl)acetamide]",9.17,> 1000
"Cn1nc(NS(C)(=O)=O)c2c(Cl)ccc(-n3c([C@H](Cc4cc(F)cc(F)c4)NC(=O)Cn4nc(C(F)F)c5c4C(F)(F)[C@@H]4C[C@H]54)nc4cc(-c5ccc(F)cc5CO)ccc4c3=O)c21 (atropisomer, axis not shown; (aR)) [Example 105, N-((S)-1-(3-(4-chloro-1-methyl-3-(methylsulfonamido)-1H-indazol-7-yl)-7-(4-fluoro-2-(hydroxymethyl)phenyl)-4-oxo-3,4-dihydroquinazolin-2-yl)-2-(3,5-difluorophenyl)ethyl)-2-((3bS,4aR)-3-(difluoromethyl)-5,5-difluoro-3b,4,4a,5-tetrahydro-1H-cyclopropa[3,4]cyclopenta[1,2-c]pyrazol-1-yl)acetamide]",9.47,> 1000
"Cn1nc(NS(C)(=O)=O)c2c(Cl)ccc(-n3c([C@H](Cc4cc(F)cc(F)c4)NC(=O)Cn4nc(C(F)F)c5c4C(F)(F)[C@@H]4C[C@H]54)nc4cc(-c5ccccc5Oc5ccccc5)ccc4c3=O)c21 (atropisomer, axis not shown; (aR)) [Example 107, N-((S)-1-(3-(4-chloro-1-methyl-3-(methylsulfonamido)-1H-indazol-7-yl)-4-oxo-7-(2-phenoxyphenyl)-3,4-dihydroquinazolin-2-yl)-2-(3,5-difluorophenyl)ethyl)-2-((3bS,4aR)-3-(difluoromethyl)-5,5-difluoro-3b,4,4a,5-tetrahydro-1H-cyclopropa[3,4]cyclopenta[1,2-c]pyrazol-1-yl)acetamide]",8.00,> 1000
"Cn1nc(NS(C)(=O)=O)c2c(Cl)ccc(-n3c([C@H](Cc4cc(F)cc(F)c4)NC(=O)Cn4nc(C(F)F)c5c4C(F)(F)[C@@H]4C[C@H]54)nc4cc(-c5cc(F)c(F)c(F)c5)ccc4c3=O)c21 (atropisomer, axis not shown; (aR)) [Example 108, N-((S)-1-(3-(4-chloro-1-methyl-3-(methylsulfonamido)-1H-indazol-7-yl)-4-oxo-7-(3,4,5-trifluorophenyl)-3,4-dihydroquinazolin-2-yl)-2-(3,5-difluorophenyl)ethyl)-2-((3bS,4aR)-3-(difluoromethyl)-5,5-difluoro-3b,4,4a,5-tetrahydro-1H-cyclopropa[3,4]cyclopenta[1,2-c]pyrazol-1-yl)acetamide]",9.11,> 1000
"Cn1nc(NS(C)(=O)=O)c2c(Cl)ccc(-n3c([C@H](Cc4cc(F)cc(F)c4)NC(=O)Cn4nc(C(F)F)c5c4C(F)(F)[C@@H]4C[C@H]54)nc4cc(-c5ccccc5S(C)(=O)=O)ccc4c3=O)c21 (atropisomer, axis not shown; (aR)) [Example 109, N-((S)-1-(3-(4-chloro-1-methyl-3-(methylsulfonamido)-1H-indazol-7-yl)-7-(2-(methylsulfonyl)phenyl)-4-oxo-3,4-dihydroquinazolin-2-yl)-2-(3,5-difluorophenyl)ethyl)-2-((3bS,4aR)-3-(difluoromethyl)-5,5-difluoro-3b,4,4a,5-tetrahydro-1H-cyclopropa[3,4]cyclopenta[1,2-c]pyrazol-1-yl)acetamide]",9.96,> 1000
"Cn1nc(NS(C)(=O)=O)c2c(Cl)ccc(-n3c([C@H](Cc4cc(F)cc(F)c4)NC(=O)Cn4nc(C(F)F)c5c4C(F)(F)[C@@H]4C[C@H]54)nc4cc(-c5ccccc5CO)ccc4c3=O)c21 (atropisomer, axis not shown; (aR)) [Example 116, N-((S)-1-(3-(4-chloro-1-methyl-3-(methylsulfonamido)-1H-indazol-7-yl)-7-(2-(hydroxymethyl)phenyl)-4-oxo-3,4-dihydroquinazolin-2-yl)-2-(3,5-difluorophenyl)ethyl)-2-((3bS,4aR)-3-(difluoromethyl)-5,5-difluoro-3b,4,4a,5-tetrahydro-1H-cyclopropa[3,4]cyclopenta[1,2-c]pyrazol-1-yl)acetamide]",9.85,> 500
"COc1ccnc(-c2ccc3c(=O)n(-c4ccc(Cl)c5c(NS(C)(=O)=O)nn(C)c45)c([C@H](Cc4cc(F)cc(F)c4)NC(=O)Cn4nc(C(F)F)c5c4C(F)(F)[C@@H]4C[C@H]54)nc3c2)n1 (atropisomer, axis not shown; (aR)) [Example 117, N-((S)-1-(3-(4-chloro-1-methyl-3-(methylsulfonamido)-1H-indazol-7-yl)-7-(4-methoxypyrimidin-2-yl)-4-oxo-3,4-dihydroquinazolin-2-yl)-2-(3,5-difluorophenyl)ethyl)-2-((3bS,4aR)-3-(difluoromethyl)-5,5-difluoro-3b,4,4a,5-tetrahydro-1H-cyclopropa[3,4]cyclopenta[1,2-c]pyrazol-1-yl)acetamide]",10.24,> 500
"Cn1nc(NS(C)(=O)=O)c2c(Cl)ccc(-n3c([C@H](Cc4cc(F)cc(F)c4)NC(=O)Cn4nc(C(F)F)c5c4C(F)(F)[C@@H]4C[C@H]54)nc4cc(-c5ccncc5)ccc4c3=O)c21 (atropisomer, axis not shown; (aR)) [Example 118, N-((S)-1-(3-(4-chloro-1-methyl-3-(methylsulfonamido)-1H-indazol-7-yl)-4-oxo-7-(pyridin-4-yl)-3,4-dihydroquinazolin-2-yl)-2-(3,5-difluorophenyl)ethyl)-2-((3bS,4aR)-3-(difluoromethyl)-5,5-difluoro-3b,4,4a,5-tetrahydro-1H-cyclopropa[3,4]cyclopenta[1,2-c]pyrazol-1-yl)acetamide]",9.80,> 500
